In EP4782449A1, “TRICYCLIC PYRIDINE COMPOUND ACTING AS SARM1 ENZYME ACTIVITY INHIBITOR, AND USE THEREOF” (Artivila (ShenZhen) Innovation Center, Ltd., priority 2023, dated 2025):

How the values were obtained:
[1] = test system: dorsal root ganglion explants; assay: Axonal Wallerian degeneration assay in mouse DRG explant culture; assay type: cell-based, C57BL/6 male mice; settings: 10 µM test compound, 2 hours pretreatment, axons transected, images at 0 hour and 24 hours
From the text: The experimental method was based on Gerdts J et al. (Gerdts J, Sasaki Y, Vohra B, Marasa J, Milbrandt J. Image-based screening identifies novel roles for IkappaB kinase and glycogen synthase kinase 3 in axonal degeneration. J Biol Chem. 2011 Aug 12;286(32):28011-8).
Dorsal root ganglia were dissected from 2-month-old C57BL/6 male mice and placed in 35 mm culture dishes containing pre-cooled HBSS buffer. Excess tissue from each dorsal root ganglion was removed and cut into 2-3 explants using a scalpel, and the explants were planted in wells of a 96-well plate coated with 100 ng/mL Matrigel (Corning). 100 µL of DRG culture medium (Neurobasal medium (Gibco) containing 2% B-27 (Gibco), 1% GlutaMax (Gibco), and 10 ng/mL NGF (MCE)) was added, then cultured in a 37°C incubator for one week, with medium change on day 4, and experiments were performed on day 8.
0.1 µL of 10 mM test compound was dissolved in 100 µL DRG culture medium to prepare new culture medium containing 10 µM test compound. The culture medium in the 96-well plate was aspirated and new culture medium containing the test compound was added. Then the dorsal root ganglion explants were incubated with the medium in a 37°C incubator for 2 hours for pre-protection. After 2-hour pretreatment, a glass electrode was used to transect axons in the area near the tissue block, and bright-field images of axons in the same area were captured at 0 hour and 24 hours post axonal degeneration using a 20x objective lens of a microscope (Olympus). Axonal integrity was evaluated using an in-house developed script.

SARM1 = molecular target: T1, SARM1 (Homo sapiens, UniProt Q6SZW1); assay: In vitro biochemical assay for inhibiting SARM1 enzyme activity (PC6 fluorescence, NADase); settings: full-length SARM1 from transfected HEK293 cells; 50 µM NAD, 50 µM PC6, 50 µM NMN activator; room temperature, 30 minutes; read-out: IC50
T1 construct: inventors produced full-length SARM1 for NAD enzyme activity experiments, and used it for screening; His (C); made in house; host or cells: HEK293 cells, transient transfection; supernatant of digitonin lysate, no further purification described
T1 sequence (Q6SZW1 28-724): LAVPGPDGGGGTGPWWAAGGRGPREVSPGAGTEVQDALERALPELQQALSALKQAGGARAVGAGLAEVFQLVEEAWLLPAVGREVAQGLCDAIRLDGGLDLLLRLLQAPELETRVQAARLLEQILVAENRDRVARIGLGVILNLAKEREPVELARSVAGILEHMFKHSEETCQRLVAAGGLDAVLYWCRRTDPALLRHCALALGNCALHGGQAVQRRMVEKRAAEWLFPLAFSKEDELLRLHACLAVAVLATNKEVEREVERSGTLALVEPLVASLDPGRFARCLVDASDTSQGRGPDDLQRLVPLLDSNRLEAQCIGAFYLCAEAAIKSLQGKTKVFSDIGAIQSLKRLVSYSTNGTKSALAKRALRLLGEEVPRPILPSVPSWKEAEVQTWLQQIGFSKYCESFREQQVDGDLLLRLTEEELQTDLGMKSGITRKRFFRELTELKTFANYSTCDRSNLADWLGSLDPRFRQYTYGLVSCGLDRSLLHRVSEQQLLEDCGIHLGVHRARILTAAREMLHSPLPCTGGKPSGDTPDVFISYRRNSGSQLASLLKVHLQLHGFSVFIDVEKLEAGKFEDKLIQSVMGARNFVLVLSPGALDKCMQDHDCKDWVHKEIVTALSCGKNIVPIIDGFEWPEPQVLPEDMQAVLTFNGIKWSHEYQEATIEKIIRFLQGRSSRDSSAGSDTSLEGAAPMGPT
Protocol: The gene sequence of SARM1 protein was amplified using PCR, and the PCR amplification product was constructed into pcDNA3.1-HIS-C plasmid. The above construction was completed by YouBio(Hunan, China). HEK293 cells were cultured in 10 cm dishes using DMEM, and the cells were transfected with 15 μg pcDNA3.1-SARM[…]-C expression plasmid on the following day. Cells were collected 48 hours after transfection, and SARM1 protein expressed in the cells was obtained by digitonin lysis for in vitro activity assay experiments. The specific procedure was as follows: Cells were digested with trypsin-EDTA, then centrifuged at 1000 rpm for 5 minutes, washed once with PBS, and then resuspended in PBS containing 100 μM digitonin, with 0.6 mL PBS for the cells in per 10 cm dish, and lysed for 5 minutes. […] Then the supernatant containing SARM1 protein was collected by centrifugation at 5000 rpm for 10 minutes. […] A group without inhibitor was used as control group. All mixtures were incubated at room temperature for 10 minutes. Then, 50 μM NAD and 50 μM PC6 as substrates and 50 μM NMN as an activator were added to the SARM1 protein incubated with the inhibitor, and the reaction was carried out at room temperature for 30 minutes. The concentrations of each component were the final concentrations in the reaction system. […] Finally, the reaction rate was used to represent the protein activity and calculate the half-maximal inhibitory concentration.

SMILES	Degree of Protection Against Axonal Wallerian Degeneration [1]	IC50 (SARM1)
O=C1C(Cc2ccc(F)cc2)CN1c1ccc2c(c1)COc1cnccc1-2 (centres unmarked) [Compound 142, 3-(4-fluorobenzyl)-1-(6H-isochromeno[3,4-c]pyridin-8-yl)azetidin-2-one]	A (substantial protection (A) >50%)	0.1 to 1 µM
O=C(CCc1ccccc1F)Nc1ccc2c(c1)COc1cnccc1-2 [Compound 136]	A (substantial protection (A) >50%)	< 0.1 µM
O=C1C(Cc2ccc(Cl)o2)CCN1c1ccc2c(c1)COc1cnccc1-2 (centres unmarked) [Compound 12]	B (partial protection (B): 20% to 50%)	0.1 to 1 µM
O=C(CCc1cccc(F)c1)Nc1ccc2c(c1)COc1cnccc1-2 [Compound 34]	A (substantial protection (A) >50%)	< 0.1 µM
O=C1C(Cc2ccc3c(c2)CC3)CCN1c1ccc2c(c1)COc1cnccc1-2 (centres unmarked) [Compound 19]	A (substantial protection (A) >50%)	1 to 10 µM
O=C(CCc1ccc(Cl)c(F)c1)Nc1ccc2c(c1)COc1cnccc1-2 [Compound 28]	A (substantial protection (A) >50%)	0.1 to 1 µM
O=C(CCc1cccnc1)Nc1ccc2c(c1)COc1cnccc1-2 [Compound 50]	A (substantial protection (A) >50%)	0.1 to 1 µM
N#Cc1ccc(CCC(=O)Nc2ccc3c(c2)COc2cnccc2-3)cc1F [Compound 30]	A (substantial protection (A) >50%)	0.1 to 1 µM
O=C1C(Cc2ccccc2)CCN1c1ccc2c(c1)COc1cnccc1-2 (centres unmarked) [Compound 2, 3-benzyl-1-(6H-isochromeno[3,4-c]pyridin-8-yl)pyrrolidin-2-one]	A (substantial protection (A) >50%)	0.1 to 1 µM
O=C(COc1ccc(F)cc1)Nc1ccc2c(c1)COc1cnccc1-2 [Compound 74]	B (partial protection (B): 20% to 50%)	< 0.1 µM
O=C(CCc1ccc(F)c(F)c1)Nc1ccc2c(c1)COc1cnccc1-2 [Compound 25]	A (substantial protection (A) >50%)	< 0.1 µM
O=C(CCc1ccc(Cl)cc1)Nc1cnc2c(c1)COc1cnccc1-2 [Compound 84]	B (partial protection (B): 20% to 50%)	< 0.1 µM
O=C1C(Cc2ccc(F)cc2)CCN1c1cc2c(cn1)-c1ccncc1OC2 (centres unmarked) [Compound 128]	A (substantial protection (A) >50%)	< 0.1 µM
O=C(CC1CCc2ccccc21)Nc1ccc2c(c1)COc1cnccc1-2 (centres unmarked) [Compound 76]	A (substantial protection (A) >50%)	0.1 to 1 µM
O=C1C(Cc2ccc(F)cc2)CCN1c1cnc2c(c1)COc1cnccc1-2 (centres unmarked) [Compound 126]	A (substantial protection (A) >50%)	< 0.1 µM
COc1ccc(CCC(=O)Nc2ccc3c(c2)COc2cnccc2-3)cc1 [Compound 78]	A (substantial protection (A) >50%)	0.1 to 1 µM
O=C(CCc1ccc(F)cc1F)Nc1ccc2c(c1)COc1cnccc1-2 [Compound 37]	A (substantial protection (A) >50%)	0.1 to 1 µM

SMILES	Degree of Protection Against Axonal Wallerian Degeneration [1]	IC50 (SARM1)
O=C1C(Cc2cc(F)c(Cl)c(F)c2)CCN1c1ccc2c(c1)COc1cnccc1-2 (centres unmarked) [Compound 18]	B (partial protection (B): 20% to 50%)	1 to 10 µM
O=C(CCc1ccc(F)cc1)Nc1ccc2c(c1)COc1cnccc1-2 [Compound 29, 3-(4-fluorophenyl)-N-(6H-isochromeno[3,4-c]pyridin-8-yl)propanamide]	A (substantial protection (A) >50%)	< 0.1 µM
O=C1C(Cc2cc(F)cc(F)c2)CCN1c1ccc2c(c1)COc1cnccc1-2 (centres unmarked) [Compound 4]	A (substantial protection (A) >50%)	0.1 to 1 µM
N#Cc1ccc(CC2CCN(c3ccc4c(c3)COc3cnccc3-4)C2=O)cc1 (centres unmarked) [Compound 16]	A (substantial protection (A) >50%)	1 to 10 µM
O=C(CCc1ccc(Cl)cc1)Nc1ccc2c(c1)COc1cnccc1-2 [Compound 42, 3-(4-chlorophenyl)-N-(6H-isochromeno[3,4-c]pyridin-8-yl)propanamide]	A (substantial protection (A) >50%)	< 0.1 µM
O=C(NCc1ccc(F)cc1)Nc1ccc2c(c1)COc1cnccc1-2 [Compound 45, 1-(4-fluorobenzyl)-3-(6H-isochromeno[3,4-c]pyridin-8-yl)urea]	A (substantial protection (A) >50%)	< 0.1 µM
O=C(CCc1ccc(C(F)(F)F)cc1)Nc1ccc2c(c1)COc1cnccc1-2 [Compound 32]	B (partial protection (B): 20% to 50%)	0.1 to 1 µM
O=C1C(Cc2cccc(Cl)c2)CCN1c1ccc2c(c1)COc1cnccc1-2 (centres unmarked) [Compound 9]	A (substantial protection (A) >50%)	1 to 10 µM
O=C(CCc1ccc(Cl)c(Cl)c1)Nc1ccc2c(c1)COc1cnccc1-2 [Compound 21]	A (substantial protection (A) >50%)	< 0.1 µM
O=C(CCc1cccs1)Nc1ccc2c(c1)COc1cnccc1-2 [Compound 138]	A (substantial protection (A) >50%)	< 0.1 µM
O=C(CCc1cc(F)cc(F)c1)Nc1ccc2c(c1)COc1cnccc1-2 [Compound 39]	A (substantial protection (A) >50%)	< 0.1 µM
O=C1C(Cc2cccc3c2CCCC3)CCN1c1ccc2c(c1)COc1cnccc1-2 (centres unmarked) [Compound 56]	B (partial protection (B): 20% to 50%)	1 to 10 µM
O=C1C(Cc2ccncc2)CCN1c1ccc2c(c1)COc1cnccc1-2 (centres unmarked) [Compound 62]	A (substantial protection (A) >50%)	0.1 to 1 µM
O=C1C(Cc2ccc(Cl)s2)CCN1c1ccc2c(c1)COc1cnccc1-2 (centres unmarked) [Compound 7]	A (substantial protection (A) >50%)	1 to 10 µM
Cc1ccc(CNC(=O)Nc2ccc3c(c2)COc2cnccc2-3)cc1 [Compound 72]	B (partial protection (B): 20% to 50%)	0.1 to 1 µM
O=C(CCc1cc(F)c(F)c(F)c1)Nc1ccc2c(c1)COc1cnccc1-2 [Compound 27]	B (partial protection (B): 20% to 50%)	< 0.1 µM
O=C1C(Cc2ccc3occc3c2)CCN1c1ccc2c(c1)COc1cnccc1-2 (centres unmarked) [Compound 57]	B (partial protection (B): 20% to 50%)	0.1 to 1 µM
